According to patent EP2710893A1, “Methods of treating autism spectrum disorders and compositions for same” (Theta Biomedical Consulting&development Co., Inc, priority 2009, dated 2011):

Experiments:
mast cells = test: Inhibition of mast cells; type: cell-based; conditions: Mast cell
[1] = test system: brain blood vessel leakage; test: Evans blue extravasation (brain blood vessel leakage) in mice; type: in vivo
Procedure: Male BALB/6 mice (6 weeks old, Jackson Laboratories, Bar Harbor, ME) were injected in their tail vein with 0.2 ml of Evans blue (0.4%). Binding of Evans blue to the albumin found in the blood prevents Evans blue from escaping the circulation and constitutes a good marker from extravasation in brain parenchyma.
Brain blood vessel leakage was assessed with Evans blue extravasation at 2 hr following Evans blue and 30 min after intraperitoneal injection of NT. Mice were anesthetized with a single intraperitoneal injection of ketamine/xylazine ([…]), an intracardiac catheter was inserted in the left ventricle, blood was withdrawn, and 10 ml normal saline was administered intracardially to wash any Evans blue from the systemic circulation. The mice were then decapitated and the whole brain was removed. For brain extravasated Evans blue measurements, the brains were first weighed and the Evans blue was then extracted in 1 ml of N,N-dimethylformamide overnight at 55 °C and the optical density was measured at 620 nm using a PerkinElmer Luminescence Spectrophotometer (Perkin Elmer, Norwalk, CT). EB concentration was calculated using a standard curve and values were normalized to the tissue weight and expressed as arbitrary units/mg of tissue. Five animals per group were estimated to be sufficient for significant differences given the variability (<50%) observed. Results of Evans blue/mg tissue were expressed as mean ± SD of percent change from control. This statistical analysis was chosen because it permits the experimental results to be compared to their own control and avoids variability from experiment to experiment. Values were then compared using the non-parametric Mann-Whitney U test. Significance is denoted by p<0.05. In order to induce brain blood vessel leakage, the mice were either treated only with an intraperitoneal injection (0.5 ml) of NT (500 nmol/kg body weight) or first pretreated with the flavonoid luteolin (40 mg/kg body weight) mixed in olive kernel extract to permit solubilization and increased absorption of the lipid-soluble luteolin. The mice not treated with luteolin were pretreated the same way only with the vehicle in order to keep the conditions similar [olive kernel extract, obtained from Minerva Edible Oils, Athens, Greece (http://www.minerva.com.gr/)]. […] When the mice were treated with both IL-33 (1 microg/mouse) and NT, brain leakage was even greater (Fig. 3); IL-33 alone had no effect. Pretreatment with the same amount of luteolin as before inhibited brain blood vessel leakage by 50% (Fig. 3). Using more luteolin could inhibit the synergistic effect of IL-33 and NT.

With O=c1c(O)c(-c2ccc(O)c(O)c2)oc2cc(O)cc(O)c12 [Quercetin] as the molecule, how does the inhibition at 10 µM (mast cells) read?
Its inhibition at 10 µM is 80%.

What does the source list for O=c1cc(-c2ccc(O)c(O)c2)oc2cc(O)cc(O)c12 [luteolin]?
inhibition of brain blood vessel leakage ([1]; Figure 3 legend, intraperitoneal luteolin 10 min prior to injection of IL-33 plus NT): inhibited; inhibition of brain blood vessel leakage ([1]; NT-induced leakage, pretreatment with luteolin 40 mg/kg body weight mixed in olive kernel extract): completely inhibited; inhibition of brain blood vessel leakage ([1]; leakage induced by IL-33 (1 microg/mouse) and NT, pretreatment with luteolin 40 mg/kg body weight): 50%

How did the “increase in brain blood vessel leakage” value ([1]; intraperitoneal injection of NT 500 nmol/kg body weight, Evans blue extravasation 30 min after NT, percent change from control) turn out when neurotensin [NT] was run?
The value was 150%.
